This note sets out measurements from patent publication EP1099690A1, “MONOCYCLIC $g(b)-LACTAM COMPOUNDS AND CHYMASE INHIBITORS CONTAINING THE SAME” (SHIONOGI & CO., LTD., priority 1998, dated 2000).

Experiment [1] deals with T1, human chymase (Homo sapiens, UniProt P23946).
T1 sequence (P23946 22-247): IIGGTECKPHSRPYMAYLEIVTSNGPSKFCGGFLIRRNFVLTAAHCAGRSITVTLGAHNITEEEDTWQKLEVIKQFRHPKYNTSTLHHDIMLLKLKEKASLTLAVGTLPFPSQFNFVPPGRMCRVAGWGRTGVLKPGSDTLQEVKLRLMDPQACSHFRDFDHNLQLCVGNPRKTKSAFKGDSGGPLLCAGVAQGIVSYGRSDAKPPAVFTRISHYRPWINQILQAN
The experiment is described as follows: Chymase inhibitory activity (Suc-Ala-Ala-Pro-Phe-pNA substrate, absorption 405 nm). The settings on record: purified human chymase, 30 minutes at 37 °C preincubation, substrate 0.5 mM. The format is biochemical. The procedure:
Compound (I) was dissolved in dimethylsulfoxide (DMSO) at 10^-2 M. Concentration of DMSO for activity measurement was 1 %.
Compound (I) dissolved in DMSO and purified human chymase (Takai et al., Clinica Chimica Acta 265, 1997, 13-20) were added to a buffer (0.1M Tris-HCl, 1.8M NaCl pH8.0). After the mixture was treated for 30 minutes at 37 °C, Suc-Ala-Ala-Pro-Phe-pNA (BACHEM Feinchemikalien AG) was added at 0.5 mM as a substrate and the mixture was enzymatically reacted at 37 °C.
After the reaction, the absorption intensity (405 nm) of the solution was measured to calculate the inhibitory rate.

For experiment [2], the system named is IL-1β. In words: Cytokine production inhibitory activity, Concanavalin A stimulated mononuclear cells, ELISA: IL-1β. The settings on record: IL-1β in culture supernatant, human mononuclear cells, Concanavalin A 5 µg/ml, forty-eight hours. The format is cell-based. The procedure: (§1) After human blood obtained in heparinized tube was layered on the Filcoll - Hypaque mixed solution (density=1.114, mono-poly separation solution, Dainippon Pharmaceutical Co., Ltd.), it was centrifuged to prepare mononuclear cells. The obtained mononuclear cells were suspended in a medium (Macrophage-SFM:GIBCO) to adjust 2 X 10^6 cells/ml and cultivated in 48-well plates. Ten minutes later addition of the compound of the present invention, Concanavalin A (5 µg/ml) was added to stimulate cells. After forty-eight hours, IL-1β, IL-2, IL-4, IL-5, IL-6, TNF-α and IFNγ in the culture supernatant were quantified by ELISA method. The following kits were used for the quantification of these cytokines. • IL-1β: Quantikine(Trademark) Human IL-1β ELISA KIT (R&D system) • IL-2: Quantikine(Trademark) Human IL-2 ELISA KIT (R&D system) • IL-4: Quantikine(Trademark) Human IL-4 ELISA KIT (R&D system) • IL-5: Quantikine(Trademark) Human IL-5 ELISA KIT (R&D system) • IL-6: Quantikine(Trademark) Human IL-6 ELISA KIT (R&D system) • TNF-α: Quantikine(Trademark) Human TNF-α ELISA KIT (R&D system) • IFNγ: Quantikine(Trademark) Human IFNγ ELISA KIT (R&D system)
On the technique in general: In an ELISA, binding on a coated surface is turned into a signal by an enzyme label.

Experiment [3] relates to IL-2. The experiment is described as follows: Cytokine production inhibitory activity, Concanavalin A stimulated mononuclear cells, ELISA: IL-2. It counts as cell-based. As to conditions: IL-2 in culture supernatant, Concanavalin A 5 µg/ml, forty-eight hours. The procedure:
as §1

Experiment [4] concerns IL-4. In words: Cytokine production inhibitory activity, Concanavalin A stimulated mononuclear cells, ELISA: IL-4. The format is cell-based. The settings on record: IL-4 in culture supernatant, Concanavalin A 5 µg/ml, forty-eight hours. The procedure: as §1
The subject of experiment [5] is IL-5. In words: Cytokine production inhibitory activity, Concanavalin A stimulated mononuclear cells, ELISA: IL-5. The format is cell-based. As to conditions: IL-5 in culture supernatant, human mononuclear cells, Concanavalin A 5 µg/ml, forty-eight hours. The procedure: as §1
Experiment [6] deals with IL-6. In words: Cytokine production inhibitory activity, Concanavalin A stimulated mononuclear cells, ELISA: IL-6. The format is cell-based. As to conditions: IL-6 in culture supernatant, Concanavalin A 5 µg/ml, forty-eight hours. The procedure: as §1
Experiment [7] deals with TNF-α. The experiment is described as follows: Cytokine production inhibitory activity, Concanavalin A stimulated mononuclear cells, ELISA: TNF-α. The format is cell-based. The settings on record: TNF-α in culture supernatant, human mononuclear cells, Concanavalin A 5 µg/ml, forty-eight hours. The procedure:
as §1

The subject of experiment [8] is IFNγ. The experiment is described as follows: Cytokine production inhibitory activity, Concanavalin A stimulated mononuclear cells, ELISA: IFNγ. The settings on record: IFNγ in culture supernatant, Concanavalin A 5 µg/ml, forty-eight hours. The format is cell-based. The procedure:
as §1

As to `CC(NC(=O)N1C(=O)C(Cc2ccccc2)C1Oc1ccc(C(=O)N2CCN(C)CC2)cc1)c1ccccc1` (stereo not shown) [Compound I-39, 3-Benzyl-2-[4-(4-methyl-piperazine-1-carbonyl)-phenoxy]-4-oxo-azetidine-1-carboxylic acid (1-phenyl-ethyl)-amide], the IC50 was 0.00046 µM in experiment [1]; 2.7 µM in experiment [2]; 2.7 µM in experiment [3] (Homo sapiens); 11.7 µM in experiment [4] (Homo sapiens); 6.5 µM in experiment [5]; 6.4 µM in experiment [6] (Homo sapiens). The results for the IC50 in experiment [7] and in experiment [8] (Homo sapiens) were 1.9 µM and 12.1 µM, respectively.
As to `CC(NC(=O)N1C(=O)C(Cc2ccccc2)C1Oc1ccc(C(=O)N2CCN(C)CC2)cc1)c1ccccc1` (stereo not shown) [Compound I-62, 3-Benzyl-2-[4-(4-methyl-piperazine-1-carbonyl)-phenoxy]-4-oxo-azetidine-1-carboxylic acid (1-phenyl-ethyl)-amide], the IC50 came to 0.00017 µM in experiment [1]; 11.3 µM in experiment [2]; 2.4 µM in experiment [3] (human mononuclear cells); 20.2 µM in experiment [4] (human mononuclear cells); 13.9 µM in experiment [5]; 9.3 µM in experiment [6] (human mononuclear cells). Moreover, the IC50 in experiment [7] came to 6.8 µM; in experiment [8] (human mononuclear cells), 17.1 µM.

In general, IC50 refers to the concentration that gives 50% inhibition.
